MIC and Viable cell count data for five molecules are collected here from patent publication US6479532B1, “Antifungal compositions” (Fujisawa Pharmaceutical Co., Ltd., priority 1999, dated 2002).

Common to all, as to type: cell-based
The subject of assay [1] is Trichophyton rubrum 7030. Put plainly: Agar plate dilution assay (checker board), PY + BTF. On the procedure: (§1) With Trichophyton spp., each strain was cultured on a Sabouraud's glucose agar (glucose 2%) slant at 25° C. for 2˜3 weeks. Then, about 3˜5 ml of physiological saline supplemented with 0.1% (w/v) Tween 80 and sterilized was added to the above slant culture of the test strain and conidia were liberated by scratching the slant surface with a platinum loop. The collected conidial suspension was filtered through a fine-mesh metal sieve to remove hyphal masses and, then, centrifuged at 3000×g for 10 minutes to concentrate the conidia. The concentrate was resuspended in the same sterile saline solution as above, the conidia were counted with a hemocytometer, and the suspension was adjusted to a predetermined conidial population (10^5 spores/ml).
(§2) Each plate was inoculated with a microbial suspension of predetermined concentration (cells or spores/ml) by the stamping method. Trichophyton spp. were cultured at 25° C. for 2 weeks and Candida spp. were cultured at 30° C. for 2 days. Then, the growth of each test strain was investigated.
(§3) The FIC index was calculated from the MIC value of PY or LC as used alone or PY and LC as used in combination.
(§4) For Trichophyton spp., the same medium as used in Test Example 1 was used.
(§5) With Trichophyton spp., the procedure of Test Example 1 was repeated.
(§6) A 1 mg/ml solution of each drug was prepared by using ethyl alcohol for PY or dimethyl sulfoxide (DMSO) for BTF and diluted to a predetermined concentration using 20% ethyl alcohol as diluent for PY or 10% DMSO as diluent for BTF.
(§7) In the case of Trichophyton spp., 0.5 ml of a PY solution and 0.5 ml of a BTF solution, both of predetermined concentration, were blended with 9 ml of the medium to prepare a drug-containing agar plate and the procedure of test Example 1 was repeated.
(§8) Calculation of the FIC index was also performed in the same manner as in Test Example 1.

The next assay has as its system Trichophyton rubrum 7005. The description is as above. On the procedure:
as §1, §2, §3, §4, §5, §6, §7, §8

For assay [2], the system named is Staphylococcus epidermidis 15001. The assay is described as above. Particulars: drug alone, test strain g, 37° C., 20 hours. The protocol:
For the general bacterium (S. epidermidis), Mueller Hinton agar medium was used. The general bacterium was cultured in Mueller Hinton broth medium at 37° C. for 20 hours and the culture was diluted 100-fold with the same medium (10^6 cells/ml) and used. A 1 mg/ml solution of each drug was prepared by using ethyl alcohol for PY or dimethyl sulfoxide (DMSO) for BTF and diluted to a predetermined concentration using 20% ethyl alcohol as diluent for PY or 10% DMSO as diluent for BTF. In the case of the general bacterium, Mueller Hinton agar medium was used to prepare plates and the procedure of Test Example 1 was repeated. After 20 hours of culture at 37° C., the growth of the test organism was investigated. Calculation of the FIC index was also performed in the same manner as in Test Example 1.

Assay [3] has as its system Trichophyton rubrum 7030. Put plainly: Agar plate dilution assay (checker board), PY + LC. The following applies: Trichophyton rubrum, 7030, 336 h. The protocol:
(§9) Sabouraud's glucose agar (glucose 2%)
as §1
(§10) Using ethyl alcohol for PY and dimethyl sulfoxide (DMSO) for LC, a 1 mg/ml solution of each drug was respectively prepared. Then, the solution was diluted to a predetermined concentration using 20% ethyl alcohol as diluent for PY and 10% DMSO as diluent for LC.
(§11) For the determination of inhibitory activity, 0.5 ml of a PY solution and 0.5 ml of an LC solution, each adjusted to a predetermined concentration were blended with 9 ml of Sabouraud's glucose agar medium to prepare drug-containing plates (checker board method).
as §2, §3

Assay [4] has as its system Trichophyton rubrum 7010. As to the kind of experiment: Agar plate dilution assay (checker board), PY + LC. The following applies: Trichophyton rubrum, 7010, 336 h. The protocol: as §9, §1, §10, §11, §2, §3
In assay [5] the test system is Candida albicans 12012. Put plainly: Agar plate dilution assay (checker board), PY + LC. Particulars: 48 h, drug alone, test strain b, 30° C., 2 days. On the procedure:
(§12) Sabouraud's glucose agar (glucose 2%) Candida albicans was cultured in Sabouraud's broth medium (glucose 2%) at30° C. for 24 hours and the resulting culture was diluted 10-fold with the same medium as above (10^5 cells/ml) and used. Using ethyl alcohol for PY and dimethyl sulfoxide (DMSO) for LC, a 1 mg/ml solution of each drug was respectively prepared. Then, the solution was diluted to a predetermined concentration using 20% ethyl alcohol as diluent for PY and 10% DMSO as diluent for LC. For the determination of inhibitory activity, 0.5 ml of a PY solution and 0.5 ml of an LC solution, each adjusted to a predetermined concentration were blended with 9 ml of Sabouraud's glucose agar medium to prepare drug-containing plates (checker board method). Each plate was inoculated with a microbial suspension of predetermined concentration (cells or spores/ml) by the stamping method. Trichophyton spp. were cultured at 25° C. for 2 weeks and Candida spp. were cultured at 30° C. for 2 days. Then, the growth of each test strain was investigated. The FIC index was calculated from the MIC value of PY or LC as used alone or PY and LC as used in combination.

The next assay has as its system Candida albicans YU-1200. Put plainly: Agar plate dilution assay (checker board), PY + LC. The following applies: YU1200, 48 h, drug alone, test strain a, 30° C., 2 days. On the procedure:
as §12

Assay [6] deals with Candida albicans 12012. Put plainly: Fungicidal effect, viable cell count after 24 h in broth. On the procedure:
Medium used: Sabouraud's (glucose 2%) broth medium
Test strain: Candida albicans 12012
Inoculum size: about 10^4 cells/ml (1% of a 24-hour culture using Sabouraud's broth medium at 30° C.)
To one part by volume of a drug solution prepared at a concentration 10 times the predetermined concentration was added 9 parts by volume of the inoculated Sabouraud's broth medium, followed by mixing. The mixture was incubated at 30° C. for 24 hours and the MIC was determined.
Furthermore, 0.1 ml samples were taken from the test microbial suspensions of varying concentrations and inoculated onto Sabouraud's (glucose 2%) agar plates using Conradi's spreader.
After 2 days of culture at 30° C., the colonies formed were counted and the number of remaining viable cells per 0.1 ml was determined.

Assay [7] deals with Trichophyton rubrum 7030. As to the kind of experiment: Agar plate dilution assay (checker board), PY + TF. On the procedure:
(§13) Mueller Hinton agar medium was used for Staphylococcus spp. and Sabouraud's glucose agar (glucose 2%) medium was used for the fungi.
as §1
(§14) A 1 mg/ml solution of each drug was prepared using ethyl alcohol for PY or dimethyl sulfoxide (DMSO) for TF and diluted to a predetermined concentration by using 20% ethyl alcohol as diluent for PY or 10% DMSO as diluent for TF.
(§15) For the determination of the growth-inhibitory effects of drugs on test organisms, drug-containing plates were prepared by blending 0.5 ml of a PY solution and 0.5 ml of a TF solution, both of predetermined concentration, with 9 ml of said medium.
(§16) The plates were inoculated with the microbial suspensions (cells or spores/ml) by the stamping technique. Trichophyton spp. were cultured at 25° C. for 2 weeks, Candida spp. at 30° C. for 2 days, and Staphylococcus spp. at 37° C. for 20 hours. Then, the growth of each test organism was investigated (checker board method).
(§17) The FIC index was calculated from the MIC value of PY or TF alone or the two drugs used in combination.

Assay [8] relates to Trichophyton rubrum 7010. Put plainly: Agar plate dilution assay (checker board), PY + TF. On the procedure: as §13, §1, §14, §15, §16, §17
Assay [9] relates to Staphylococcus aureus FP5. As to the kind of experiment: Agar plate dilution assay (checker board), PY + TF. Particulars: drug alone, test organism k, 37° C., 20 hours. On the procedure:
(§18) Mueller Hinton agar medium was used for Staphylococcus spp. and Sabouraud's glucose agar (glucose 2%) medium was used for the fungi. Staphylococcus spp. were cultured in Mueller Hinton broth medium at 37° C. for 18˜20 hours and diluted 100-fold with the same medium (about 10^6 cells/ml) and this dilution was used as the inoculum. A 1 mg/ml solution of each drug was prepared using ethyl alcohol for PY or dimethyl sulfoxide (DMSO) for TF and diluted to a predetermined concentration by using 20% ethyl alcohol as diluent for PY or 10% DMSO as diluent for TF. For the determination of the growth-inhibitory effects of drugs on test organisms, drug-containing plates were prepared by blending 0.5 ml of a PY solution and 0.5 ml of a TF solution, both of predetermined concentration, with 9 ml of said medium. The plates were inoculated with the microbial suspensions (cells or spores/ml) by the stamping technique. Trichophyton spp. were cultured at 25° C. for 2 weeks, Candida spp. at 30° C. for 2 days, and Staphylococcus spp. at 37° C. for 20 hours. Then, the growth of each test organism was investigated (checker board method). The FIC index was calculated from the MIC value of PY or TF alone or the two drugs used in combination.

Assay [10] relates to Staphylococcus epidermidis 15001. Put plainly: Agar plate dilution assay (checker board), PY + TF. The following applies: drug alone, test organism l, 37° C., 20 hours. On the procedure: as §18
The test system of another assay is Candida albicans 16010. As to the kind of experiment: Agar plate dilution assay (checker board), PY + TF. Particulars: 48 h, drug alone, test organism h, 30° C., 2 days. The protocol: Mueller Hinton agar medium was used for Staphylococcus spp. and Sabouraud's glucose agar (glucose 2%) medium was used for the fungi. Candida albicans was cultured in Sabouraud's broth medium (glucose 2%) at 30° C. for 24 hours and the culture was diluted 10-fold (10^5 cells/ml) with the same medium and used. A 1 mg/ml solution of each drug was prepared using ethyl alcohol for PY or dimethyl sulfoxide (DMSO) for TF and diluted to a predetermined concentration by using 20% ethyl alcohol as diluent for PY or 10% DMSO as diluent for TF. For the determination of the growth-inhibitory effects of drugs on test organisms, drug-containing plates were prepared by blending 0.5 ml of a PY solution and 0.5 ml of a TF solution, both of predetermined concentration, with 9 ml of said medium. The plates were inoculated with the microbial suspensions (cells or spores/ml) by the stamping technique. Trichophyton spp. were cultured at 25° C. for 2 weeks, Candida spp. at 30° C. for 2 days, and Staphylococcus spp. at 37° C. for 20 hours. Then, the growth of each test organism was investigated (checker board method). The FIC index was calculated from the MIC value of PY or TF alone or the two drugs used in combination.

Where [11] appears, read: drug concentration 3.13 μg/ml, class symbol.
Where [12] appears, read: drug concentration 6.25 μg/ml, class symbol.

As usually defined, the MIC is the lowest concentration found to suppress growth.

Counter-ions that a name gives are not always drawn. Marks after values point to notes of the source that are not given here.

`CN(Cc1ccc(C(C)(C)C)cc1)Cc1cccc2ccccc12` [BTF, Butenafine Hydrochloride]: the MIC in the assay with Trichophyton rubrum 7030 [1] worked out at 0.025 µg/mL; in the assay on Trichophyton rubrum 7005, 0.025 µg/mL; in assay [2], 25 µg/mL.

On to `N#C/C(=C1/SCC(c2ccccc2Cl)S1)n1ccnc1` (centres unmarked) [LC, Lanoconazole], for which the MIC came to 0.0125 µg/mL with Trichophyton rubrum 7030 [3], 0.025 µg/mL in the assay with Trichophyton rubrum 7010 [4], 25 µg/mL in the assay on Candida albicans 12012 [5] and 12.5 µg/mL in the assay on Candida albicans YU-1200. The Viable cell count entry was “∞ (∞: 10^3˜10^4)” with Candida albicans 12012 [6] (setting [11]), “∞ (∞: 10^3˜10^4)” in the assay on Candida albicans 12012 [6] (setting [12]), 876 CFU/0.1 ml in the assay on Candida albicans 12012 [6] (drug concentration 12.5 μg/ml) and 308 CFU/0.1 ml in the assay on Candida albicans 12012 [6] (drug concentration 25 μg/ml).

Take `O=[N+]([O-])c1c(Cl)cccc1-c1c[nH]cc1Cl` [PY, Pyrrolnitrin]: the MIC in the assay on Trichophyton rubrum 7030 [1] was determined as 0.1 µg/mL; with Trichophyton rubrum 7005, 0.1 µg/mL; in the assay on Trichophyton rubrum 7030 [3], 0.2 µg/mL; in the assay with Trichophyton rubrum 7010 [4], 0.2 µg/mL; with Trichophyton rubrum 7030 [7] (Trichophyton rubrum, 7030, 336 h), 0.39 µg/mL; with Trichophyton rubrum 7010 [8] (Trichophyton rubrum, 7010, 336 h), 0.2 µg/mL. In addition, the MIC in assay [9] stood at 25 µg/mL; in assay [10], 12.5 µg/mL; in the assay on Candida albicans 16010, 25 µg/mL; in [2], 25 µg/mL; with Candida albicans 12012 [5] it was 25 µg/mL; with Candida albicans YU-1200, 12.5 µg/mL.

As to `CN(C/C=C/C#CC(C)(C)C)Cc1cccc2ccccc12` [TF, Terbinafine Hydrochloride], the minimal inhibitory concentration (MIC) in the assay on Trichophyton rubrum 7030 [7] (336 h, drug alone, test organism j, Trichophyton rubrum 7030, 25° C., 2 weeks, read-out: MIC) was 0.0125 µg/mL; with Trichophyton rubrum 7010 [8] (336 h, drug alone, test organism i, Trichophyton rubrum 7010, 25° C., 2 weeks, read-out: MIC) it was 0.0125 µg/mL; in assay [9], 50 µg/mL; in assay [10], 25 µg/mL; in the assay with Candida albicans 16010, 50 µg/mL.

As for Pyrrolnitrin, the Viable cell count entry with Candida albicans 12012 [6] (setting [11]) is “∞ (∞: 10^3˜10^4)”; in the assay on Candida albicans 12012 [6] (setting [12]), “∞ (∞: 10^3˜10^4)”; with Candida albicans 12012 [6] (drug concentration 12.5 μg/ml), 1012 CFU/0.1 ml; in the assay on Candida albicans 12012 [6] (drug concentration 25 μg/ml), 1 CFU/0.1 ml.
